Source: patent US10709707B2, “Methods of treating ocular conditions” (Oyster Point Pharma, Inc., priority 2016, dated 2020)
Where “and” joins values, the source holds several entries; their conditions need not be identical. Identical values can stand only once. Entries after “also recorded” stand apart in the source; their conditions may differ. Like-named read-outs stand apart in the source and are kept apart here.

What was measured:
[1] = molecular target: T1, α7 nicotinic acetylcholine receptor (Rattus norvegicus, UniProt Q05941); assay: Receptor binding α7, inhibition of [3H]-MLA binding, rat brain membranes
T1 construct: from tissue; host or cells: rat brain membranes (per the earlier reading)
T1 sequence (Q05941 23-502): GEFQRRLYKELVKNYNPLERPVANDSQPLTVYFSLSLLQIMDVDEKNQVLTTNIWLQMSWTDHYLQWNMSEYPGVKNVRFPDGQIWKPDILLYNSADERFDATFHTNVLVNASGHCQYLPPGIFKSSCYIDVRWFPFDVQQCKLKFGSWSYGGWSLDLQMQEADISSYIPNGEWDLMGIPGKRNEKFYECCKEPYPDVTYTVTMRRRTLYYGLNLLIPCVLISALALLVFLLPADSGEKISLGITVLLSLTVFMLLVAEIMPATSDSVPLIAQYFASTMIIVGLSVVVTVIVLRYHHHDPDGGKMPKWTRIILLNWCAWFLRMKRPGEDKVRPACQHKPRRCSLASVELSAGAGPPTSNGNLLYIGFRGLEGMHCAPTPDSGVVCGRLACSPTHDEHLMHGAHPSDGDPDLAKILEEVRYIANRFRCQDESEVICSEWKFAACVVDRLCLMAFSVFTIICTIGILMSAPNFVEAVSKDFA

a6/a3b2b3 = a6/a3b2b3 (Homo sapiens, UniProt P17787+P32297+Q15825); assay: Receptor binding a6/a3b2b3
Sequence of a6/a3b2b3 (Q15825+P32297 fused with the stated changes): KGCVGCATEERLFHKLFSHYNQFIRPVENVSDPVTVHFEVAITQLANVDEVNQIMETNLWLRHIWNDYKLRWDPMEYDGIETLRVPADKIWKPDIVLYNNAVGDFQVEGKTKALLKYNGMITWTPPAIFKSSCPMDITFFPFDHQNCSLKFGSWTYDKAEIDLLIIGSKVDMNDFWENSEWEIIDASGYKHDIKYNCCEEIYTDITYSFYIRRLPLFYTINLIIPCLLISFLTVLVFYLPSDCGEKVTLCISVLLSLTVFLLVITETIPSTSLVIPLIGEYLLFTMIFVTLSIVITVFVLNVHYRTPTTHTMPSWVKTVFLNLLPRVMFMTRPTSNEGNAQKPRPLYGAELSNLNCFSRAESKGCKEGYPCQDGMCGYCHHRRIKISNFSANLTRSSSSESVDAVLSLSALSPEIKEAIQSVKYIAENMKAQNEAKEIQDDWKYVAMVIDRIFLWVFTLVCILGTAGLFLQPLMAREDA
Sequence of a6/a3b2b3 (P17787 26-502): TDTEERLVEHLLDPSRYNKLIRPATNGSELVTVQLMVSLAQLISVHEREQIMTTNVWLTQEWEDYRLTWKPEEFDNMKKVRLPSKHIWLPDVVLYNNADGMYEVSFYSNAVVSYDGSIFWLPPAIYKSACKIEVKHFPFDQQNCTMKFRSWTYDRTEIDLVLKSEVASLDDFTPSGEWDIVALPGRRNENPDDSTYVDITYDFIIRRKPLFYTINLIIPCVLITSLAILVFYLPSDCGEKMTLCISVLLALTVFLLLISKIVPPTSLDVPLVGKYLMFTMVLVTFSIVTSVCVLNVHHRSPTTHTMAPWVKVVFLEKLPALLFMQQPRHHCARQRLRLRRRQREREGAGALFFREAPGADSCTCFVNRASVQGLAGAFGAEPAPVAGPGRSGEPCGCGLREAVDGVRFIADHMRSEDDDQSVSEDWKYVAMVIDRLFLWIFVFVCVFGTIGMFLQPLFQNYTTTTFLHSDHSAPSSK
Sequence of a6/a3b2b3 (Q05901 25-458 partner limits assumed): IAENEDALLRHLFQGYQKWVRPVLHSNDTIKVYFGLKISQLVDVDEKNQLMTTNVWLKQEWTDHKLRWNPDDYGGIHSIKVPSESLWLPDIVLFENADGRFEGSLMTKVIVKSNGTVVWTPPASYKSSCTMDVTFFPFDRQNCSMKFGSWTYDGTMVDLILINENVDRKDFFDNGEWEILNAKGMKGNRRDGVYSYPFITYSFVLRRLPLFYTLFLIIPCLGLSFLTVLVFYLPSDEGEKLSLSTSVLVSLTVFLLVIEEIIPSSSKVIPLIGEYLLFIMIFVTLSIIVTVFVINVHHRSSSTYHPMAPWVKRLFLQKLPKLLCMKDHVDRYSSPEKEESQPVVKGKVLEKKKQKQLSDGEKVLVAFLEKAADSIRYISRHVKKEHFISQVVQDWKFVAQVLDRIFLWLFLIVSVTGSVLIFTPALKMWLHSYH

a6b3b4a5 = a6b3b4a5 (Homo sapiens, UniProt P30926+Q15825); assay: Receptor binding a6b3b4a5
human α4β2 = human α4β2 (Homo sapiens, UniProt P17787+P43681); assay: Receptor function α4β2, Ca++ flux; assay type: cell-based
Sequence of human α4β2 (P43681 29-627 limits assumed): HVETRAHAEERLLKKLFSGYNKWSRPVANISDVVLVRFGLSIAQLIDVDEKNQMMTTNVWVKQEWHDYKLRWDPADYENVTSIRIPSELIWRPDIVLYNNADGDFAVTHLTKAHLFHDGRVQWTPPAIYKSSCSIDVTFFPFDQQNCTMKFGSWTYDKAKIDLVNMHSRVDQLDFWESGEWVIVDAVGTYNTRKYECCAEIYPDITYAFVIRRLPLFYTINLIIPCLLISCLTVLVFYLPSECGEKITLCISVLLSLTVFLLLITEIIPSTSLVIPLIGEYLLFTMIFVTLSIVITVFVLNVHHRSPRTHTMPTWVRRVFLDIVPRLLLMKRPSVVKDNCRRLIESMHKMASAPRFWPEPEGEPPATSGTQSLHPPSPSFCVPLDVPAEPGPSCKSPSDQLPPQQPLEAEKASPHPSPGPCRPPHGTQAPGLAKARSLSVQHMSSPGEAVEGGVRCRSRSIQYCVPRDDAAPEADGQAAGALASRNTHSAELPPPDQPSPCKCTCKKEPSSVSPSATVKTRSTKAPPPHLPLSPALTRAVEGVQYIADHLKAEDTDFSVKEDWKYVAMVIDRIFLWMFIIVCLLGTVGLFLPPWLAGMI
Sequence of human α4β2 (P17787 26-502): as the sequence (P17787 26-502) above
Protocol: There are two types of α4β2-containing nAChR, depending on which subunit occupies the fifth subunit of the pentaineric complex. There is a high sensitivity subtype, (α4β2)2β2, and a low sensitivity subtype, (α4β2)2α4. Targacept used a rudimentary assay to encourage the expression of one subtype over the other based on incubation temperature.

muscle receptor (α1β1δγ) = molecular target: T2, muscle receptor (α1β1δγ) (Homo sapiens, UniProt P02708+P07510+Q07001); assay: Receptor function muscle receptor, TE671 cells; assay type: cell-based
T2 construct: endogenous in cells; host or cells: TE671 (TE-671) cells / membranes (per the earlier reading)
T2 sequence (P11230 24-501): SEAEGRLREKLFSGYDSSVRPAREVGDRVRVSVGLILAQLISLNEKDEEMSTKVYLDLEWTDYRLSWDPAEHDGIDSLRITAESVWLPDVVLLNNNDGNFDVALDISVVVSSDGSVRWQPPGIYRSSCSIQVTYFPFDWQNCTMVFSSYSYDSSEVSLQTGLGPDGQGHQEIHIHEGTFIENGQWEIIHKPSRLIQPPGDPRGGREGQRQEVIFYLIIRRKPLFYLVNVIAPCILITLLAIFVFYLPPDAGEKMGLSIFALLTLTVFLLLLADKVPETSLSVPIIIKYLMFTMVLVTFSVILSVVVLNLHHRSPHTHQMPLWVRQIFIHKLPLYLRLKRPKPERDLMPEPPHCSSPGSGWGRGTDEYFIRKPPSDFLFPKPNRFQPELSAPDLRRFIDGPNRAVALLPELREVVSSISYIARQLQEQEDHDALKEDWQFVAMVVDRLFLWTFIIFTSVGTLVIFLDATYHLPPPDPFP
T2 sequence (P02708 21-457): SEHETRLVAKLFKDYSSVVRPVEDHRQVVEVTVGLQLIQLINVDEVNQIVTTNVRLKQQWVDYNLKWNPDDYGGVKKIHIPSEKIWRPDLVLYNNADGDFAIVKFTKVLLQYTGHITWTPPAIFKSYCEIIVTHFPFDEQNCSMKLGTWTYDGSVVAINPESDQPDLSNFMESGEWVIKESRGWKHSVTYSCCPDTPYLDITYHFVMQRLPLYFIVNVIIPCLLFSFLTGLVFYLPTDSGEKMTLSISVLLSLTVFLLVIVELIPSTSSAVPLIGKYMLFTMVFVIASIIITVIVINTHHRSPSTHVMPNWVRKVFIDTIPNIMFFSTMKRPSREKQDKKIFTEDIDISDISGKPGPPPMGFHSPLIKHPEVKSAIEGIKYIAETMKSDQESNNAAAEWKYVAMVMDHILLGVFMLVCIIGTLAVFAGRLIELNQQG
T2 sequence (Q07001 22-517): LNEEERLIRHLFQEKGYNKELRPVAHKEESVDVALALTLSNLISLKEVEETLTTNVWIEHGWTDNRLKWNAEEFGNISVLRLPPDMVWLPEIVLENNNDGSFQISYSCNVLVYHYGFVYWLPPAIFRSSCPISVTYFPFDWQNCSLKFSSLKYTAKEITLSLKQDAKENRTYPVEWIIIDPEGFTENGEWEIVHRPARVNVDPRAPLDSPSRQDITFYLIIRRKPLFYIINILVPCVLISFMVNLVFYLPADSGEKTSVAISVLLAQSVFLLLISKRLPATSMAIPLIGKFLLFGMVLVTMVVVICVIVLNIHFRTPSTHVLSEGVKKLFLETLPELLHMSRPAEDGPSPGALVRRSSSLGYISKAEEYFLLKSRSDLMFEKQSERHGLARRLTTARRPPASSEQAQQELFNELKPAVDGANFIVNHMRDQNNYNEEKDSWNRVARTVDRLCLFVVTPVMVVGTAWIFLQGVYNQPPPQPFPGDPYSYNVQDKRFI
T2 sequence (P07510 23-517): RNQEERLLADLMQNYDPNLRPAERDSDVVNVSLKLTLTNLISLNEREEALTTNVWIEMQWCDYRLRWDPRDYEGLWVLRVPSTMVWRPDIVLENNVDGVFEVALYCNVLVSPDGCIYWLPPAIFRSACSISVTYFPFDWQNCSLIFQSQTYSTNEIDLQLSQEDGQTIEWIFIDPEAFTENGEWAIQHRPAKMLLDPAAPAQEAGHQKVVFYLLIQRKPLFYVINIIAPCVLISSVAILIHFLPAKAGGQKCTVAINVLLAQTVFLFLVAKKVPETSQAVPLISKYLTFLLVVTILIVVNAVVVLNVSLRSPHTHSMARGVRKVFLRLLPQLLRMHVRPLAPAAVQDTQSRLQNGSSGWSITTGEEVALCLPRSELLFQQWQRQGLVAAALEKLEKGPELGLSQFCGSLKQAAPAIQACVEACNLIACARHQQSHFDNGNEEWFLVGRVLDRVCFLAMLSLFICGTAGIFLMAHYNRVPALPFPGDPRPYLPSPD

a4b4 = a4b4 (Homo sapiens, UniProt P30926+P43681); assay: Receptor function a4b4, Ca++ flux; assay type: cell-based
Sequence of a4b4 (P43681 29-627 limits assumed): as the sequence (P43681 29-627 limits assumed) above
Sequence of a4b4 (P30926 22-498): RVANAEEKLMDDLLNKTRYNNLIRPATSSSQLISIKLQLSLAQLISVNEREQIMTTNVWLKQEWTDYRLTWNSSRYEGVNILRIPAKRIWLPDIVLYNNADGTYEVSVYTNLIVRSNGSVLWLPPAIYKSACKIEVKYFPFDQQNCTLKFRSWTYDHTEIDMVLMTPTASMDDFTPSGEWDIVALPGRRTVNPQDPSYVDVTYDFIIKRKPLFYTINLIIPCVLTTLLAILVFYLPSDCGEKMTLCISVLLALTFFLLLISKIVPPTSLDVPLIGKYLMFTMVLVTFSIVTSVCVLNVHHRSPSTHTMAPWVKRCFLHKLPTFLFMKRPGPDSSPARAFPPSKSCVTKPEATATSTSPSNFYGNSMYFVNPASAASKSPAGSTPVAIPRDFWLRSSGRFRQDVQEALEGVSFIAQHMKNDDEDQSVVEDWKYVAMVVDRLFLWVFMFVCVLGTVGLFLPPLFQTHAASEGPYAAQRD

[2] = molecular target: high and low sensitivity alpha4beta2-containing NNR subtypes (Homo sapiens, UniProt P17787+P43681); assay: Electrophysiology studies; assay type: cell-based
Excerpt: It is readily absorbed following oral administration and has favorable pharmacokinetics.

[3] = tested on: STZ rat model of diabetic neuropathy; assay: Mechanical allodynia, STZ rat model of diabetic neuropathy; assay type: in vivo, Rat: Sprague-Dawley
behavioral sensitization = assay: CNS safety pharmacology, behavioral sensitization by motor activity; assay type: in vivo, Rat: Sprague-Dawley
[4] = CNS safety pharmacology, body temperature; assay type: in vivo, Rat: Sprague-Dawley; settings: po, doses up to and including 100 mg/kg
[5] = tested on: arterial pressure, heart rate, ECG, body temperature; assay: Cardiovascular safety, conscious telemetered monkeys po; assay type: in vivo, Monkey: Cynomologous; settings: single oral doses 3, 10, 30 mg/kg
pKa = assay type: physicochemical
[6] = Single dose pharmacokinetics, rat; assay type: in vivo, Sprague-Dawley rat; settings: for AUC(0-t): read-out: AUC0-1
[7] = 2-week and 13-week repeated dose TK studies, rat; assay type: in vivo
Protocol: In 2-week and 13-week repeated dose TK studies in rat, animals were dosed orally at 30, 100 or 200 mg/kg/day (2-week study) or at 30, 100 or 300 mg/kg/day (13-week study). […] In the 2-week study, there was a 1.2 to 2.2-fold increase in exposure from Day 1 to 15. In the 13-week study, there was a general increase from Day 1 to 29 and roughly equivalent exposure from Day 29 to 91.

[8] = binding to red blood cells and blood/plasma ratio; assay type: in vitro ADME; settings: broadly species and concentration independent
Protocol: Binding of Compound 1 to red blood cells was 28 to 54% directly after spiking and 41 to 63% at 0.5 and 1 hour after spiking. The blood/plasma ratios ranged from 0.78 to 1.26 and were broadly species and concentration independent.

mouse lymphoma cells = assay: micronucleus test in mouse lymphoma cells; assay type: cell-based; settings: in vitro
Excerpt: Compound 1 was negative for mutagenicity in both in vitro bioassays—including an Ames test, a micronucleus test in mouse lymphoma cells, and a chromosome aberration assay using cultured human peripheral blood lymphocytes—and an in vivo rat bone marrow micronucleus test.

[9] = clinical studies with oral Compound 1; assay type: in vivo, human
Protocol: The oral form of Compound 1-A, Compound 1, has been studied in several clinical trials. A total of 108 human subjects have received Compound 1: 69 healthy volunteers in Phase 1 studies, 23 subjects in a Phase 1b gastroparesis study, and 16 subjects with constipation predominant irritable bowel syndrome (IBS-C) in a Phase 2a study. Subjects were exposed to doses of Compound 1 ranging from 5 mg through and including 200 mg.

[10] = a4b2 HS (high sensitivity), 29° C., Ca++ Flux
[11] = Sprague-Dawley, plasma, S-D rat, 30 mg/kg [14C]-Compound 1, oral
[12] = male, Sprague-Dawley, plasma, S-D rat, 0.3 mg/kg Compound 1, oral
[13] = male, Sprague-Dawley, plasma, S-D rat, 3 mg/kg Compound 1, oral

C(=C\[C@H]1CCNC1)/c1cncnc1 [Compound 1, (R)-5-((E)-2-pyrrolidin-3-ylvinyl)pyrimidine]
Ki ([1]; Rat a7, assay and tissue type not given): 3.5 µM | Ki ([1]; [3H]-MLA, rat brain hippocampal membranes): 5.5 µM and 5.53 µM | Ki (a6/a3b2b3): 0.24 µM | Ki (a6b3b4a5): 1.1 µM | EC50 (human α4β2; Ca++ flux, SH-EP1 cells expressing human α4β2): 5.3 µM | Emax (human α4β2; Ca++ flux, SH-EP1 cells expressing human α4β2, read-out: Emax): 120% | EC50 (human α4β2; Human a4b2, Ca++ Flux): 5.3 µM | (Imax) (human α4β2; a4b2 HS 29° C., Ca++ Flux): 98 | EC50 (human α4β2; [10]): 3.3 µM | IC50 (human α4β2; [10]): 0.43 µM | DC50 (human α4β2; a4b2 LS 37° C., Ca++ Flux): 0.45 µM | Dmax (human α4β2; a4b2 LS 37° C., Ca++ Flux): 98% | EC50 (human α4β2; a4b2 LS (low sensitivity), 37° C., Ca++ Flux): 5.3 µM | Emax (human α4β2; high sensitivity subtype (α4β2)2β2, read-out: Emax): 120% | EC50 (human α4β2; human α4β2-containing nAChR): 0.6 µM | IC50 (human α4β2; low sensitivity subtype (LS)): 0.45 µM | Emax (human α4β2; read-out: Emax compared to nicotine, human α4β2-containing nAChR): 120% | agonist type (human α4β2; α4β2 nicotine receptor subtype): full agonist | EC50 (muscle receptor (α1β1δγ)): 15 µM | Emax (muscle receptor (α1β1δγ); TE-671, Human muscle-type, Ca++ Flux): 42% | Emax (muscle receptor (α1β1δγ); TE-671, Human muscle-type, Rb+ Flux, single point): 12% | Emax (muscle receptor (α1β1δγ); TE-671, TE671 cells): 42% | EC50 (a4b4): 4.3 µM | Emax (a4b4): 98% | activity at high and low sensitivity alpha4beta2-containing NNR subtypes [2]: agonist activity | allodynia, acute dosing ([3]; 0.5 and 2 hr post-dosing, Compound 1 0.1 and 1 mg/kg po, Gabapentin 100 mg/kg ip): significantly reversed; also recorded: Acute Dosing - Compound 1 reversed | onset of action ([3]; animal models of neuropathic pain, compared to gabapentin): 30 min | allodynia, repeat dosing ([3]; once daily 0.1, 1, 10 mg/kg po, all doses, 6 weeks post-STZ dosing): significantly reversed; also recorded: all dosessignificantly reduced | dose levels producing reversal of mechanical allodynia ([3]; repeat dosing, 4 weeks post-dosing): 4 weeks post-dosing, no dose | interaction between Compound 1 and nicotine in behavioral sensitization (behavioral sensitization; 30 mg/kg, 15 days cross-challenge): daily for 15 days indicated no interaction | behavioral sensitization (motor activity) (behavioral sensitization; Compound 1 3, 10, 30 mg/kg po): no noteworthy changes; also recorded: not associated with behavioral | effect on body temperature [4]: no noteworthy changes; also recorded: Compound 1 had no effect on body | arterial pressure, heart rate, ECG parameters, body temperature [5]: no noteworthy changes | arterial pressure, heart rate, ECG parameters, body temperature ([5]; listed as TC6499): monkeys did not induce notable effects | pKa (pKa; read-out: pKa(1)): 1.73 | pKa (pKa; read-out: pKa(2)): 10.3 | Cmax [6, 11]: 1710 ng/mL | Tmax [6, 11]: 0.25 h | AUC(0-t) ([6]; Sprague-Dawley, plasma, S-D rat, 30 mg/kg [14C]-Compound 1, oral, t = 168 h): 3310 ng·h/mL | half-life ([6]; Sprague-Dawley, plasma, S-D rat, 30 mg/kg [14C]-Compound 1, oral, read-out: t1/2 (converted)): 1.2 h | Cmax and AUC0-24 vs dose ([6]; male rats, 3 mg/kg group vs 0.3 mg/kg, oral): higher than dose-proportional | Cmax [6, 12]: 6.51 ng/mL | Tmax [6, 12]: 0.5 h | AUC(0-t) ([6]; male, Sprague-Dawley, plasma, S-D rat, 0.3 mg/kg Compound 1, oral, t = 25 h): 13.5 ng·h/mL | half-life ([6]; male, Sprague-Dawley, plasma, S-D rat, 0.3 mg/kg Compound 1, oral, read-out: t1/2 (converted)): 1.4 h | Cmax [6, 13]: 169 ng/mL | Tmax [6, 13]: 0.167 h | AUC(0-t) ([6]; male, Sprague-Dawley, plasma, S-D rat, 3 mg/kg Compound 1, oral, t = 25 h): 211 ng·h/mL | half-life ([6]; male, Sprague-Dawley, plasma, S-D rat, 3 mg/kg Compound 1, oral, read-out: t1/2 (converted)): 1.4 h | Kp ([6]; male, Sprague-Dawley, rat, brain, oral, 0.3 or 3 mg/kg orally, read-out: brain exposure as share of plasma exposure): ~0.15 | half-life ([6]; male, Sprague-Dawley, rat, plasma and brain, po, 0.3 or 3 mg/kg orally, read-out: half-life (plasma and brain concentrations) (converted)): 1.4 h | exposure parameters (Cmax and AUC0-24) vs dose ([7]; Days 1 and 15 (2-week), Days 1, 29 and 91 (13-week)): increased roughly in proportion to dose | Tmax ([7]; both sexes, rat, plasma, oral 30-300 mg/kg/day, 2-week and 13-week studies): 0.5 to 2 h | exposure in females compared with males ([7]; both studies): generally higher | blood plasma ratio [8]: 0.78 to 1.26 | mutagenicity, micronucleus test (mouse lymphoma cells): negative | changes in physical exam, blood or urine laboratory measurements or ECG measurements ([9]; 108 human subjects, oral doses 5 mg to 200 mg): No clinical noteworthy changes | adverse events reported ([9]; all studies, oral doses 5 mg to 200 mg): typically GI-related | changes in ECG measurements ([9]; clinical studies to date): no noteworthy changes
